# Results: patent US11407725B2 (The Board of Trustees of the University of Illinois, priority 2018, dated 2022)
# T1: ALDH1A1 (Homo sapiens, UniProt P00352)
# T1 construct: made in house
# T1 sequence (P00352 1-501): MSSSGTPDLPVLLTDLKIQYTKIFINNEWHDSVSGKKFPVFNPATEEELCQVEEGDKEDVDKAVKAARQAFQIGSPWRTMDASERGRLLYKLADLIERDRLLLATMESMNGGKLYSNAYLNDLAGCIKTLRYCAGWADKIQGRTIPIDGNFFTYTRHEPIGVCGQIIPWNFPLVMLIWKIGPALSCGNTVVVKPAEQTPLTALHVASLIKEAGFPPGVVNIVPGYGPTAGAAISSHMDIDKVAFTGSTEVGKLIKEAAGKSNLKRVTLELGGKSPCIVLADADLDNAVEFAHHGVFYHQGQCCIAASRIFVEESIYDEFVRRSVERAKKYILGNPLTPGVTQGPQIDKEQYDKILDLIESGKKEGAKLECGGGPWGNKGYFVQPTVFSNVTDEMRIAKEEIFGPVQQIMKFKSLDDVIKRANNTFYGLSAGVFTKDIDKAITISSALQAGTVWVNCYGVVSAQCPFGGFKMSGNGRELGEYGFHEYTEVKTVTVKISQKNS
# T2: ALDH1A3 (Homo sapiens, UniProt P47895)
# T2 construct: made in house
# T2 sequence (P47895 1-512): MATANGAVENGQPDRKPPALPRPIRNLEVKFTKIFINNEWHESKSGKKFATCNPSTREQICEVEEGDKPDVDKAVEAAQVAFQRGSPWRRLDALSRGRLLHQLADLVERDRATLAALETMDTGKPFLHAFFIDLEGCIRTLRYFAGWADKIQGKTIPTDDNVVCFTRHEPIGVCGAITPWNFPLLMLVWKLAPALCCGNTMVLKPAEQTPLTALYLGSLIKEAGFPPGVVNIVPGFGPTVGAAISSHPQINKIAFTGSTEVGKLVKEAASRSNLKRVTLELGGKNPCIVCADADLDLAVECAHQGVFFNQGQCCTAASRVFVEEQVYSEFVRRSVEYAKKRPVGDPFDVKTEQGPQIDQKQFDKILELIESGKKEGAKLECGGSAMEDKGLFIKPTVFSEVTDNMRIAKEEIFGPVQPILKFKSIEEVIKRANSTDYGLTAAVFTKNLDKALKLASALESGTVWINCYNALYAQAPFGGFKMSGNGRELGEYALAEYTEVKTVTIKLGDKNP
# B1: ALDH1A1 (Homo sapiens) (protein)
# chain: T1 sequence (P00352 1-501)
# notes: made in house
# Tests used:
# [1] = tested on: ALDH isoforms; assay: BAAA isoform selectivity assay; assay type: biochemical, human; settings: 18 μM BAAA, 20 units of each isoform
# Method: BAAA activation was determined using UV/Vis spectroscopy. A 2 mM stock solution of BAAA was prepared in DMSO and activated with 2M HCL as described in the ALDEFLUOR™ Kit protocol ([…] Technologies Inc.). Immediately before measurement, BAAA was added to the reaction mixture described above to a final concentration of 18 μM. The solution was mixed vigorously, and the reaction proceeded at room temperature. UV/Vis absorbance spectra were taken from 300 to 500 nm every 30 seconds for 15 minutes. The rate of NADH produced per minute was calculated according to the absorbance at 340 nm (ε=[…] cm^−1). All measurements were performed in triplicate and reported as the average±standard deviation. 20 units of enzyme and 18 μM of BAAA were necessary to detect a significant increase in absorbance at 340 nm for the ALDH1A1 isoform.
# [2] = Photophysical properties (absorbance, emission, extinction coefficient, quantum yield); assay type: physicochemical; settings: Probes 1-8
# [3] = molecular target: T1, ALDH1A1; assay: ALDH isoform selectivity of red probes: ALDH1A1; assay type: biochemical; settings: Table 2
# Method: (§1) Each ALDH isoform was added to a 50 mM triethanolamine solution (pH 7.4) containing 2.0 mM NAD^+ and 100 μM substrate at room temperature. Benzaldehyde was the substrate for ALDH3A1. Propanal was the substrate for all other isoforms. ALDH isoform activity was determined by monitoring the rate of NADH production through the increase in absorbance at 340 nm (ε=6220 M^−1cm^−1). For these assays, 1 unit is defined as the amount of enzyme that catalyzes the conversion of […] per minute. For every combination of dye and enzyme, 2 μM dye was preincubated with 2.0 mM NAD^+ in 50 mM triethanolamine solution (pH 7.4). The reaction was initiated by addition of 1 unit of ALDH. Dyes were excited at 590 nm, and fluorescence was measured continuously at 610 nm.
# [4] = molecular target: T1, ALDH1A1; assay: ALDH isoform selectivity of red probes: ALDH1A1; assay type: biochemical
# [5] = molecular target: T2, ALDH1A3; assay: ALDH isoform selectivity of red probes: ALDH1A3; assay type: biochemical; settings: Table 2
# Method: as §1
# [6] = substrate: Cc1cc(C=O)ccc1-c1c2cc(F)c(=O)cc-2oc2cc(O)c(F)cc12; assay: ALDH1A1 kinetics; assay type: biochemical, human; settings: other: ALDH1A1, identical conditions; pH 7.4
# Method: (§2) Solutions were prepared of 2.0 mM NAD+ and 0.1-2.5 μM AlDeSense or red-AlDeSense in 50 mM triethanolamine solution (pH 7.4). For every concentration, 1 unit of enzyme (as defined and determined in ALDH Isoform Selectivity) was added. Fluorescence was monitored for 30 seconds to determine V0. AlDeSense was excited at 490 nm and monitored at 510 nm. Red-AlDeSense was excited at 590 nm and monitored at 610 nm. Each condition was performed in triplicate. Protein concentration was determined using the Pierce™ BCA Protein Assay Kit. Data was analyzed using Microsoft Excel.
# [7] = substrate: Cc1cc(C=O)c(F)c(F)c1C1=C2C=CC(=O)C=C2[Si](C)(C)c2cc(O)ccc21; assay: ALDH1A1 kinetics; assay type: biochemical, human; settings: other: ALDH1A1, identical conditions; pH 7.4
# Method: as §2
molecule,measurement,setting,value
"Cc1cc(C)n2c1C=C1C=CC(CCC(=O)NCC=O)=[N+]1[B-]2(F)F [BAAA, BODIPY-aminoacetaldehyde]",reactivity with ALDH isoforms,[1],react with a variety of isoforms
"C[Si]1(C)C2=CC(=O)C=CC2=C(c2ccc(C=O)cc2C(F)(F)F)c2ccc(O)cc21 [Probe 3, 4-(7-Hydroxy-5,5-dimethyl-3-oxo-3,5-dihydrodibenzo[b, e]silin-10-yl)-3-(trifluoromethyl)benzaldehyde]",Quantum Yield,[2],0.25
same,Enzyme Activity 1A1,[3],Medium
same,Enzymatic Turn On,"[3]; ALDH1A1, 2 μM dye",2.7
same,enzyme kinetics with ALDH1A1,[4],slow enzyme kinetics
same,Enzyme Activity 1A3,[5],Low
B1,kcat/Km,[6],57700 M⁻¹ s⁻¹
same,kcat/Km,[7],132000 M⁻¹ s⁻¹
